Patent publication US11179389B2, “Purine inhibitors of human phosphatidylinositol 3-kinase delta” (Merck Sharp & Dohme Corp., priority 2017, dated 2021)

How the values were obtained:
PI3Kalpha = PI3Kalpha (Homo sapiens (Human), UniProt P42336); assay: HTRF PI3K biochemical assay, alpha isoform (for selectivity ratio); conditions: ratio PI3K-alpha IC50 value / PI3K-delta IC50 value
Description: (§1) HTRF PI3K Biochemical Assay to Measure Intrinsic Potency of Compound Inhibitors
(§2) The PI3-Kinase biochemical assays were developed to measure the intrinsic potency and compound dependent inhibition of the alpha, beta, delta, and gamma PI3K isoform enzymes. This assay was developed and further optimized from a kit produced by Upstate (Millipore catalog #33-047) (Millipore Sigma. Billerica Mass., USA) and has been configured for high throughput screening (HTS) and structure-activity relationship (SAR) screening. Briefly, this procedure exploits the exquisite specificity and high affinity binding of enzyme reaction […] phosphatidyl(3,4,5)triphosphate (PIP3) to the GRP1 pleckstrin homology (PH) domain to generate the signal. In the absence of PIP3, an HTRF (Homogeneous Time-Resolved Fluorescence energy transfer) complex is formed consisting of europium (Eu)-labeled anti-GST, GSTtagged GRP1-PH domain, biotin-PIP3 (biotinylated-PIP3) and streptavidin conjugated APC (Allophycocyanin). The native PIP3 produced by PI3-Kinase activity disrupts in a competitive manner the biotin-PIP3 from the pleckstrin homology (PH) domain, resulting in the loss of energy transfer (HTRF complex) and a decrease in the signal. The format of this assay is the same for all 4 isoforms of PI3K; the differences lie in the concentration of enzyme used to achieve robust assay window. The alpha, beta, and delta assays are run at 0.5, 1, and 0.3 nM enzymes and the gamma assay is run at 5 nM enzyme. The ATP concentration is 100 uM in the alpha, beta, and delta assays and 50 uM adenosine triphosphate (ATP) in the gamma assay. All reactions are run at 5 uM PIP2.
(§3) Compounds are serially diluted (3-fold in 100% DMSO) across a 384-well polypropylene source plated from column 3 to column 12 and column 13 to column 22, to yield 10 concentration dose response for each test compound. Columns 1, 2, 23 and 24 contain either only DMSO or pharmacological known control inhibitor. Once titrations are made, 2.5 nL of the compounds on 384 well plates are reformatted and transferred by acoustic dispense in quadruplicates to a 1536 assay plate (Greiner) to assay across all four PI3K isoform enzymes.
(§4) The PI3-Kinase biochemical assay was optimized using the HTRF kit provided by Upstate (Millipore). The assay kit contains six reagents: 1) 4×Reaction Buffer; 2) native PIP2 (substrate); 3) Stop (EDTA); 4) Detection Mix A (Streptavidin-APC); 5) Detection Mix B (Eu-labeled Anti-GST plus GST-tagged PH-domain): 6) Detection Mix C. In addition, the following items were obtained or purchased; PI3Kinase (catalog #'s alpha 14-602, beta 14-603, gamma 14-558 and delta 14-604 from Upstate Biotechnology now EMD Millipore, Mahopac, N.Y., USA), dithiothreitol (Sigma-Aldrich Corp. (St. Louis, Mo., USA) Catalog #D-5545), Adenosine-5′ triphosphate (InVitrogen (Waltham, Mass., USA), Cat#AS001 Å), native PIP3 (PI(3,4,5)P3, diC8, H^+, CELLSIGNALS, INC., (Columbus, Ohio, USA) Cat #907) DMSO ((Sigma-Aldrich Corp. (St. Louis. Mo., USA) Catalog #472301).
(§5) PI3Kinase Reaction Buffer is prepared by dilution the stock 1:4 with de-ionized water. DTT (DL-Dithiothreitol), phosphatidylinositol 4,5-bisphosphate (PIP2) and Biotin-PIP3 were added to 1536 assay plate at a final concentration of 5 mM, […] and 25 nM on the day of use. Enzyme addition and compound pre-incubation are initiated by the addition of 1.25 ul of PI3K (at twice its final concentration) in the 1× reaction buffer to all wells using a BioRaptor™. Plates are incubated at room temperature for 15 minutes. Reactions are initiated by addition of 1.25 ul of 2× substrate solution (PIP2 and ATP in 1× reaction buffer) using BioRaptor™. Plates are incubated in humidified chamber at room temperature for one hour. Reactions are quenched by addition of 0.625 uL of stop solution to all wells using the BioRaptor™. […]

PI3Kdelta = PI3Kdelta (Homo sapiens (Human), UniProt O00329); assay: HTRF PI3K biochemical assay, delta isoform; conditions: 0.3 nM enzyme, 100 uM ATP, 5 uM PIP2, form screened per table (Neutral or TFA salt)
Sequence of PI3Kdelta (O00329 whole entry, canonical isoform): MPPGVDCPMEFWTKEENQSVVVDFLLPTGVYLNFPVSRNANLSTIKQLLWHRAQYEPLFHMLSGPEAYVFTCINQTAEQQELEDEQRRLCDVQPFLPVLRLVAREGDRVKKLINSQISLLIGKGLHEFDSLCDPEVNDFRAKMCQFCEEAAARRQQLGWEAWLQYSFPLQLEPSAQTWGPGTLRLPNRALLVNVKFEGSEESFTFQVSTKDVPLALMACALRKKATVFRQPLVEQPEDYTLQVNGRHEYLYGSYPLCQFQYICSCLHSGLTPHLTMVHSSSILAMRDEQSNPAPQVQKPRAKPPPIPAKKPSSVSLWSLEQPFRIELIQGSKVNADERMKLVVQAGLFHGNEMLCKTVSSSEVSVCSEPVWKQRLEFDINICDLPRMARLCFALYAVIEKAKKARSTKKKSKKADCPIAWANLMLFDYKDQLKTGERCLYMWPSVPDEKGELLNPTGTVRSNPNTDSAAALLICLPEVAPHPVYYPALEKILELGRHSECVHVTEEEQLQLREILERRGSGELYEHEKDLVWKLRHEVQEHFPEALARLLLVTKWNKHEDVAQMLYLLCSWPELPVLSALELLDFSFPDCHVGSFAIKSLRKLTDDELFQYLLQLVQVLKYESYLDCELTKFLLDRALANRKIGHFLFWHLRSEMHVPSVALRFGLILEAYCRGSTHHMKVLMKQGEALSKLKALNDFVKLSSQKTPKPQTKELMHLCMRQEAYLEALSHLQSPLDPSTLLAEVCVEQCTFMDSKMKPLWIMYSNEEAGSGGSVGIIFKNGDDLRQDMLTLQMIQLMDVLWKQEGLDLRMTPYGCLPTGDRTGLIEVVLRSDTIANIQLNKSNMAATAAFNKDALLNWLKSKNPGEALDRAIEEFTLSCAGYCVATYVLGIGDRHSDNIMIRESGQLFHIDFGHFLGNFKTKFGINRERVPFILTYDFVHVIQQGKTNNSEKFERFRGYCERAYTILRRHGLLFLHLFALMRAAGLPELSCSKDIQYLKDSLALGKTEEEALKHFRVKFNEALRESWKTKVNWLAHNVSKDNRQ
Sequence of PI3Kdelta (P27986 whole entry partner, canonical isoform): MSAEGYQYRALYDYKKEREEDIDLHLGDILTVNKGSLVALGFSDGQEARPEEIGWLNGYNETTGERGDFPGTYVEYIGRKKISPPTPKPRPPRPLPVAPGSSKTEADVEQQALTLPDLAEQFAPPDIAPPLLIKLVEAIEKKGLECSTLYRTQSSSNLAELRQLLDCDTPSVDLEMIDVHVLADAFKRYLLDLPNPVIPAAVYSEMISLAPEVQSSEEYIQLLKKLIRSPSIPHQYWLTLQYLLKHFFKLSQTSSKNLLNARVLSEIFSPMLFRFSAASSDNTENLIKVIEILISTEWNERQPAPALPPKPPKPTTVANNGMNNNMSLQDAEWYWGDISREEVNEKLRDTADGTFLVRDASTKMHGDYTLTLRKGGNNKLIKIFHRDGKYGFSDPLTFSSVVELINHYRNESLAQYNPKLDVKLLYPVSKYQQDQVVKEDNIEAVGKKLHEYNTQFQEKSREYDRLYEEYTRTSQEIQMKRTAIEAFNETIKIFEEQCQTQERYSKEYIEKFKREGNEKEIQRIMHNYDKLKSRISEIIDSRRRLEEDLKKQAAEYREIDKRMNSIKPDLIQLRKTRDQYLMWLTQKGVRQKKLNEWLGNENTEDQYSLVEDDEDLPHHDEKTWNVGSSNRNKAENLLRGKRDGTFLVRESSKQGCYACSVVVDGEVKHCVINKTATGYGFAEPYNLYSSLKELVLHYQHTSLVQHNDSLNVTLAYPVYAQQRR
Description: as §1, §2, §3, §4, §5

Sequence of PI3Kalpha (P42336 whole entry, canonical isoform): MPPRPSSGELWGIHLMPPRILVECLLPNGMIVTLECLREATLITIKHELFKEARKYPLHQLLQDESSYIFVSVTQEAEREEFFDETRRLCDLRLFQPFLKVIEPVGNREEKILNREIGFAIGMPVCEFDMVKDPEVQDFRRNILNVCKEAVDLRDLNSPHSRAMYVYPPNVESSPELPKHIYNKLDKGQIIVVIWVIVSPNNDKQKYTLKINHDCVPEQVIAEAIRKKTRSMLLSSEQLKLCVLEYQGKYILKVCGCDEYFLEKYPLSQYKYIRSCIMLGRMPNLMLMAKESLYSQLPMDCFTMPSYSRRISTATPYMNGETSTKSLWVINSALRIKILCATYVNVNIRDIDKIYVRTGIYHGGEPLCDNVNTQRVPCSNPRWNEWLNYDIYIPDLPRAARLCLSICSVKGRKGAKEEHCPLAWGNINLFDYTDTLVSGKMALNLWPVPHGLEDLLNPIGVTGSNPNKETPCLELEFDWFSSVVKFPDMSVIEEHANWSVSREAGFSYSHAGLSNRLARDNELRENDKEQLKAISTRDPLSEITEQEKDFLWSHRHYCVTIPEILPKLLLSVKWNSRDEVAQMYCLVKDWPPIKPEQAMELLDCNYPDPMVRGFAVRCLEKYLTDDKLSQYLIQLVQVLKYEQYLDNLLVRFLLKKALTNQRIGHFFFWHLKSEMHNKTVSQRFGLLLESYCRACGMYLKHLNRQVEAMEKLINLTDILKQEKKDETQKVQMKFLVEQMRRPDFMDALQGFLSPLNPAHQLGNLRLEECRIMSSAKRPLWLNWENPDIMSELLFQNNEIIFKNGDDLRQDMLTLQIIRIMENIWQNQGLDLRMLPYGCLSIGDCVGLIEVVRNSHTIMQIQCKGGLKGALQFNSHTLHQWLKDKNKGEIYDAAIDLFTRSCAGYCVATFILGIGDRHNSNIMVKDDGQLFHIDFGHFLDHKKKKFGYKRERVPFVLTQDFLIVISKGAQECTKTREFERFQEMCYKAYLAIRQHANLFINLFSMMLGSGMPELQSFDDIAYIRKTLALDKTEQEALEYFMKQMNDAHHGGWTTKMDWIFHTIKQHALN
Sequence of PI3Kalpha (P27986 whole entry partner, canonical isoform): as the sequence (P27986 whole entry partner, canonical isoform) above

Structure (SMILES) | Selectivity versus PI3Kalpha (PI3Kalpha) | IC50 (PI3Kdelta) [nM]
Cn1cc(-c2nc(N3CCC4(CC3)NC(=O)OC4CC3CC3)cnc2C#N)cn1 (single isomer, unassigned) [Compound 1-7, 5-[4-(cyclopropylmethyl)-2-oxo-3-oxa-1,8-diazaspiro[4.5]dec-8-yl]-3-(1-methyl-1H-pyrazol-4-yl)pyrazine-2-carbonitrile] | >10 | 55
CCC1C(=O)NCC12CCN(c1cnc(C#N)c(-c3cnn(C)c3)n1)CC2 (single isomer, unassigned) [Compound 1-8, 5-(4-ethyl-3-oxo-2,8-diazaspiro[4.5]dec-8-yl)-3-(1-methyl-1H-pyrazol-4-yl)pyrazine-2-carbonitrile] | >10 | 60
CC(C)CC1OC(=O)NCC12CCN(c1cnc(C#N)c(-c3cnn(C)c3)n1)CC2 (single isomer, unassigned) [Compound 1-10, 5-[1-(2-methylpropyl)-3-oxo-2-oxa-4,9-diazaspiro[5.5]undec-9-yl]-3-(1-methyl-1H-pyrazol-4-yl)pyrazine-2-carbonitrile] | >10 | 30
Cn1cc(-c2nc(N3CCC4(CCC(=O)N4CC4CC4)CC3)cnc2C#N)cn1 [Compound 1-1, 5-[1-(cyclopropylmethyl)-2-oxo-1,8-diazaspiro[4.5]dec-8-yl]-3-(1-methyl-1H-pyrazol-4-yl)pyrazine-2-carbonitrile] | >10 | 5.4
Cn1cc(-c2nc(N3CCC4(CC3)COC(=O)N4CC3(C)COC3)cnc2C#N)cn1 [Compound 1-2, 5-{1-[(3-methyloxetan-3-yl)methyl]-2-oxo-3-oxa-1,8-diazaspiro[4.5]dec-8-yl}-3-(1-methyl-1H-pyrazol-4-yl)pyrazine-2-carbonitrile] | >10 | 45
Cn1cc(-c2nc(N3CCC4(CC3)CNC(=O)N4CC3CC3)cnc2C#N)cn1 [Compound 1-3, 5-[1-(cyclopropylmethyl)-2-oxo-1,3,8-triazaspiro[4.5]dec-8-yl]-3-(1-methyl-1H-pyrazol-4-yl)pyrazine-2-carbonitrile] | >10 | 9.7
CN(C)CCN1CC2(CCN(c3cnc(C#N)c(-c4cnn(C)c4)n3)CC2)N(CC2CC2)C1=O [Compound 1-4, 5-{1-(cyclopropylmethyl)-3-[2-(dimethylamino)ethyl]-2-oxo-1,3,8-triazaspiro[4.5]dec-8-yl}-3-(1-methyl-1H-pyrazol-4-yl)pyrazine-2-carbonitrile] | >10 | 10
CC(N1C(=O)N(CCN(C)C)CC12CCN(c1cnc(C#N)c(-c3cnn(C)c3)n1)CC2)C(F)(F)F (stereo not shown) [Compound 1-5, 5-{3-[2-(dimethylamino)ethyl]-2-oxo-1-(2,2,2-trifluoro-1-methylethyl)-1,3,8-triazaspiro[4.5]dec-8-yl}-3-(1-methyl-1H-pyrazol-4-yl)pyrazine-2-carbonitrile] | >10 | 7.2
Cn1cc(-c2nc(N3CCC4(CC3)CNS(=O)(=O)N4CC3CC3)cnc2C#N)cn1 [Compound 1-6, 5-[1-(cyclopropylmethyl)-2,2-dioxido-2-thia-1,3,8-triazaspiro[4.5]dec-8-yl]-3-(1-methyl-1H-pyrazol-4-yl)pyrazine-2-carbonitrile] | >10 | 12
COCCN1CC2(CCN(c3cnc(C#N)c(-c4cnn(C)c4)n3)CC2)N(CC2CC2)C1=O [Compound 1-9, 5-[1-(cyclopropylmethyl)-3-(2-methoxyethyl)-2-oxo-1,3,8-triazaspiro[4.5]dec-8-yl]-3-(1-methyl-1H-pyrazol-4-yl)pyrazine-2-carbonitrile] | >10 | 18
Cn1cc(-c2nc(N3CCC4(CC3)CNC(=O)N4CC(F)(F)F)cnc2C#N)cn1 [Compound 1-11, 3-(1-methyl-1H-pyrazol-4-yl)-5-[2-oxo-1-(2,2,2-trifluoroethyl)-1,3,8-triazaspiro[4.5]dec-8-yl]pyrazine-2-carbonitrile] | >10 | 32
N#Cc1ncc(N2CCC3(CC2)COC(=O)N3CC2CC2)nc1-c1cnn(C(F)F)c1 [Compound 1-12, 5-[1-(cyclopropylmethyl)-2-oxo-3-oxa-1,8-diazaspiro[4.5]dec-8-yl]-3-[1-(difluoromethyl)-1H-pyrazol-4-yl]pyrazine-2-carbonitrile] | >10 | 54
C[C@@H]1CN(c2nc(-c3cnn(C)c3)cnc2C#N)CCN1C(=O)C1CC1 [Compound 1-13, 3-[(3R)-4-(cyclopropylcarbonyl)-3-methylpiperazin-1-yl]-5-(1-methyl-1H-pyrazol-4-yl)pyrazine-2-carbonitrile] | >10 | 190
C[C@@H]1C[C@H]1C(=O)N1CCN(c2cnc(C#N)c(-c3cnn(C)c3)n2)C[C@H]1C [Compound 1-14, 5-[(3R)-3-methyl-4-{[(1R,2R)-2-methylcyclopropyl]carbonyl}piperazin-1-yl]-3-(1-methyl-1H-pyrazol-4-yl)pyrazine-2-carbonitrile] | >10 | 8.9
C[C@@H]1CN(c2cnc(C#N)c(-c3cnn(C)c3)n2)CCN1C(=O)C1CC1 [Compound 1-15, 5-[(3R)-4-(cyclopropylcarbonyl)-3-methylpiperazin-1-yl]-3-(1-methyl-1H-pyrazol-4-yl)pyrazine-2-carbonitrile] | >10 | 33
C[C@@H]1CN(c2cnc(C#N)c(-c3cnn(C)c3)n2)CCN1C(=O)NC1CC1 [Compound 1-16, (2R)-4-[5-cyano-6-(1-methyl-1H-pyrazol-4-yl)pyrazin-2-yl]-N-cyclopropyl-2-methylpiperazine-1-carboxamide] | >10 | 280
C[C@@H]1C[C@H]1C(=O)N1CCN(c2cnc(C#N)c(-c3cnn(C(F)F)c3)n2)C[C@H]1C [Compound 1-17, 3-[1-(difluoromethyl)-1H-pyrazol-4-yl]-5-[(3R)-3-methyl-4-{[(1R,2R)-2-methylcyclopropyl]carbonyl}piperazin-1-yl]pyrazine-2-carbonitrile] | >10 | 73
[2H]C([2H])([2H])n1cc(-c2nc(N3CCN(C(=O)C4CC4)[C@H](C)C3)cnc2C#N)cn1 [Compound 1-18, 5-[(3R)-4-(cyclopropylcarbonyl)-3-methylpiperazin-1-yl]-3-[1-(~2~H_3_)methyl-1H-pyrazol-4-yl]pyrazine-2-carbonitrile] | >10 | 16
CC(C)C[C@@H]1CN(c2cnc(C#N)c(-c3cnn(C)c3)n2)CCN1C(=O)C1CC1 [Compound 1-19, 5-[(3R)-4-(cyclopropylcarbonyl)-3-(2-methylpropyl)piperazin-1-yl]-3-(1-methyl-1H-pyrazol-4-yl)pyrazine-2-carbonitrile] | >10 | 39
Cn1cc(-c2nc(N3CCC4(CCC(=O)N4CC4CC(F)(F)C4)CC3)cnc2C#N)cn1 [Compound 1-20, 5-{1-[(3,3-difluorocyclobutyl)methyl]-2-oxo-1,8-diazaspiro[4.5]dec-8-yl}-3-(1-methyl-1H-pyrazol-4-yl)pyrazine-2-carbonitrile] | >10 | 18
